A melting point compilation (Tetko et al.)

Conditions: a range is the spread between reports

| melting point [°C] | SMILES |
| --- | --- |
| 220 to 224 | O=C(O)c1cc(Cl)cc(Cl)c1O |
| 272 | Oc1ccc2c(c1)[nH]c1ccccc12 |
| 54 to 57 | Clc1ccc(I)cc1 |
| 115 to 117 | O=Cc1ccc(C=O)cc1 |
| 124 | CCOC(=O)n1ccn(C)c1=S |
| 150 to 155 | Nc1ccncn1 |
| -98 to -97.8 | CCCCSC |
| 174 to 175 | CCC(C)C(=O)OC1CC(C)C=C2C=CC(C)C(CCC3CC(O)CC(=O)O3)C21 (configuration not stated) |
| 6 to 8.2 | C=C(c1ccccc1)c1ccccc1 |
| 43 to 47 | CCc1ccc(O)cc1 |
| -82.5 to -82 | CC[Si](CC)(CC)CC |
| 179 to 180 | NS(=O)(=O)c1ccc([N+](=O)[O-])cc1 |
| 55 to 55.5 | N#Cc1ccccc1Br |
| 162 to 163 | Cc1occc(=O)c1O |
| 148 to 150 | O=C1CCC(=O)N1Cl |
| 147 to 148 | CC(C)(C)c1ccc(C(O)CCCN2CCC(C(O)(c3ccccc3)c3ccccc3)CC2)cc1 (configuration not stated) |
| 70 to 72 | COc1cccc(CC(=O)O)c1 |
| 2 to 3.5 | ClC/C=C/CCl |
| 54 to 54.5 | COC(=O)c1cccc(I)c1 |
| 81 | Cc1ccc2n[nH]nc2c1 |
| 187 to 189 | CC1(C(=O)O)CCC(C(=O)O)C1(C)C (configuration not stated) |
| 137 to 138 | O=C(c1ccccc1)c1ccc([N+](=O)[O-])cc1 |
| -127 to -126 | Cl[SiH](Cl)Cl |
| 122 to 123 | Oc1ccc2ccccc2c1 |
| 162 to 164 | O=C(O)c1cccc(F)c1F |
| -6 to -5.5 | Fc1cc(F)cc(F)c1 |

| melting point [°C] | SMILES |
| --- | --- |
| -95 to -94.9 | CCCC1CCCCC1 |
| 161 to 164 | CC(=O)Oc1ccc(-c2ccc(OC(C)=O)cc2)cc1 |
| 185 to 188 | O=C(O)CCC(=O)O |
| 136 to 138 | O=C(c1ccco1)C(O)c1ccco1 (configuration not stated) |
| 102 to 107 | CC1=CC(=O)c2ccccc2C1=O |
| 45.5 to 46 | Oc1ccccc1C(F)(F)F |
| 176 to 178 | CC1(C)NC(=O)NC1=O |
| 176 to 177 | Nc1ccc(S(=O)(=O)c2ccc(N)cc2)cc1 |
| 47.6 to 49 | CCCCCCCCCCCCCCCCCCCCCCC |
| 43 to 46 | O=[N+]([O-])c1cccc(Cl)c1 |
| -63 to -62.9 | CCc1ccc(C)cc1C |
| 52 to 55 | CCCCCCCCP(=O)(CCCCCCCC)CCCCCCCC |
| 202 to 203 | O=C(O)c1cccc(O)c1 |
| 38 to 40 | Cc1ccc2sc(C)nc2c1 |
| 178 to 180 | CNC(=O)NC(C)=O |
| 75 to 79 | COc1ccc(C=CC(=O)c2ccccc2)cc1 |
| -87 to -85 | CC(C)CN |
| 31 to 31.5 | Nc1c(F)c(F)cc(F)c1F |
| 88 to 92 | CCOC(=O)c1ccc(N)cc1 |
| 74 to 76 | Cc1ccc(C)c(O)c1 |
| 9.5 to 10 | Brc1ccccc1I |
| 96.3 to 98 | CCOC(=O)C(NC(C)=O)C(=O)OCC |
| 127 to 130 | CCC(=O)c1cc(F)c(O)c(F)c1 |
| 188 to 189 | Nc1ccc(C(=O)O)cc1 |
| -39 to -38.7 | CC(C(C)(C)C)C(C)(C)C |
| 175 to 176 | O=c1c2ccccc2oc2ccccc12 |

| melting point [°C] | SMILES |
| --- | --- |
| -40 to -39.8 | Cc1cccc(Br)c1 |
| -140 | C=C(C)C |
| 112 to 114 | ClC(c1ccccc1)(c1ccccc1)c1ccccc1 |
| 296 to 300 | O=C(O)c1ccccc1-c1c2cc(Br)c(=O)c(Br)c-2oc2c(Br)c(O)c(Br)cc12 |
| 53 to 55 | Cc1ccc([N+](=O)[O-])c(O)c1 |
| 49 to 50 | OCc1ccccc1-c1ccccc1 |
| 252 to 253 | COc1ccc(C(=O)O)cc1O |
| 78 to 79.5 | OCC(F)(F)C(F)(F)C(F)(F)CO |
| 177 to 179 | Cc1ccccc1NC(=N)Nc1ccccc1C |
| 54 to 56.5 | Clc1cncc(Cl)n1 |
| 146 to 147 | NC(=O)c1c(F)cccc1F |
| -22.5 to -22 | C=C(C#N)C(=O)OCC |
| 11 to 12 | CCCCCCCCCCCCCCCC(=O)Cl |
| 128 to 129 | O=C(O)CCCCCCCCCCC(=O)O |
| 97 to 99 | O=Cc1ccccc1C(=O)O |
| 190 | c1ccc(-c2cc3ccccc3[nH]2)cc1 |
| 32 to 36 | CC(=O)c1cccc(C(C)=O)c1 |
| 100 to 101 | O=C(c1ccccc1)c1ccc(-c2ccccc2)cc1 |
| 36 to 36.9 | C=C(C)[C@@H]1CCC2=CC(=O)C[C@@H](C)[C@]2(C)C1 |
| 184 to 187 | Cc1nnc(S)s1 |
| 168 to 169 | O=C(O)c1cccc(Cl)c1Cl |
| 90 to 90.5 | c1c[nH]cn1 |
| 156 to 157 | NC(=O)c1ccncc1 |
| 11 to 12.4 | CCOc1cccc(OCC)c1 |
| -46 to -43 | Cc1cc(C)nc(C)c1 |
| -22 to -18 | Cc1cc(C)cc(C(C)(C)C)c1 |

| melting point [°C] | SMILES |
| --- | --- |
| 76 to 81 | CCCCCCCCCCCCCCCCCCCCCC(=O)O |
| -99.3 to -99 | CCC(CC)C(C)(C)C |
| 126 to 129 | COc1cc(C=CC(=O)c2ccccc2O)ccc1O |
| -85 to -83 | C=CCSCC=C |
| 91.5 to 94 | Nc1cnc2ccccc2c1 |
| 53.8 to 58 | CCCCCCCCCCCCCCCCCO |
| 55 to 57 | CCOC(=O)c1csc(C)n1 |
| 104 to 106 | OCC1c2ccccc2-c2ccccc21 |
| 163 to 166 | CC(=O)Nc1ccc(N)cc1 |
| -91 to -90.9 | CCC(C)(CC)CC |
| 198 to 199 | O=C(O)c1ccc(C(=O)c2ccccc2)cc1 |
| 85 to 86 | Clc1cc(Cl)c(Cl)c(Cl)c1Cl |
| -63.6 to -63 | ClC(Cl)Cl |
| -1 to 0 | CCCCCCCCN |
| -86 to -85.6 | CCCCCI |
| 54 to 56 | O=[N+]([O-])c1cccc(Br)c1 |
| 60.5 to 61 | Clc1ccc(Cl)nc1 |
| 18 to 23 | O=C(O)CCCCCc1ccccc1 |
| 131 to 132 | O=C1OC(=O)c2ccccc21 |
| 48.5 to 49 | CC(C)(C)C1CCC(=O)CC1 |
| 71 to 74 | COC(=O)c1cccc(O)c1 |
| 151 to 152 | O=C(CCNNC(=O)c1ccncc1)NCc1ccccc1 |
| -73 to -72.9 | ClC(Cl)=C(Cl)C(Cl)(Cl)Cl |
| 12 to 13 | CC(C)=CC=C(C)C |
| -42 to -41.5 | CC(C)CC(=O)CC(C)C |
| 11 to 11.2 | Cc1cccc(C)c1I |

| melting point [°C] | SMILES |
| --- | --- |
| -183 | CC |
| -76 to -75.9 | CCCOC(=O)CC |
| 119 to 121 | c1ccc(P(CP(c2ccccc2)c2ccccc2)c2ccccc2)cc1 |
| 113 to 114 | CC(Oc1ccccc1Cl)C(=O)O (configuration not stated) |
| 54.3 to 55 | CC(C)(C)c1ccc(O)c(O)c1 |
| 56 to 57 | Clc1cc(Cl)cc(I)c1 |
| -73.2 to -73 | CCCC(=O)OCCC(C)C |
| 130 to 135 | O=C(O)Cc1cccc2ccccc12 |
| 7 to 8 | Cc1ccc(Cl)cc1 |
| 160 to 161 | NC(=O)c1ccccc1Br |
| 108 to 111 | O=[N+]([O-])c1ccc(N=C=S)cc1 |
| -62 to -61.9 | COC(=O)CC(=O)OC |
| 270 to 275 | NC(CC(=O)O)C(=O)O (configuration not stated) |
| 70 to 72 | CN(C)c1cccc2c(S(=O)(=O)Cl)cccc12 |
| 30 to 31 | CCCCCCCCCCCCCCCC(=O)OC |
| -93.1 to -92 | CC(=O)C(C)C |
| 127 to 131 | COc1ccc(NC(C)=O)cc1 |
| 70 to 74 | CCN(CC)c1ccc2c(C)cc(=O)oc2c1 |
| 54 to 54.5 | Cc1cc(C)c(C)c(C)c1C |
| -81 to -80 | CCCCCCS |
| -26.8 to -22 | Fc1ccc(Cl)cc1 |
| 99 to 101 | c1ccc2c(c1)ccc1ccccc12 |
| -102 | CCSSCC |
| 79 to 82 | CNC(=O)c1ccccc1 |
| 33.2 to 37 | COC(=O)c1ccc(C)cc1 |

| SMILES | melting point [°C] |
| --- | --- |
| c1ccc(OCC2CO2)cc1 (configuration not stated) | 3.5 to 4 |
| CCCCCCCCCCCCCl | -9.3 to -9 |
| N#Cc1c2ccccc2cc2ccccc12 | 175 to 177 |
| COC(=O)C(Cl)Cl | -52 to -51.9 |
| O=C(O)CI | 81 to 82.5 |
| COC(N)=O | 54 to 55 |
| CCC1(C(C)C)C(=O)NC(=O)NC1=O | 198 to 203 |
| c1ccc(-c2ccccc2)cc1 | 69 to 71 |
| O=C(O)COc1cccc(Cl)c1 | 108 to 110 |
| Nc1ccc(Br)cc1 | 63 to 66.4 |
| N#Cc1cccc([N+](=O)[O-])c1 | 116 to 117 |
| NNC(=O)c1ccc(N)cc1 | 226 to 228 |
| CC(Cl)(Cl)Cl | -33 to -30 |
| ICCI | 80 to 83 |
| N#Cc1ccncc1 | 76 to 79 |
| N#Cc1cccc(C=O)c1 | 76.5 to 77 |
| O=C(O)CCCCCCCBr | 38.5 to 39 |
| Clc1cccc(Cl)c1Cl | 52.6 to 55 |
| O=Cc1ccc(C(F)(F)F)cc1 | 1.5 to 2 |

| SMILES | melting point [°C] |
| --- | --- |
| COP(=O)(OC)OC(=CCl)c1cc(Cl)c(Cl)cc1Cl | 96 to 97.5 |
| Nc1ccncc1 | 158 to 159 |
| COS(=O)(=O)OC | -32 to -27 |
| N#Cc1cccc(C#N)c1 | 161 to 162 |
| Cc1ccc(N)cc1N | 97 to 99 |
| CCCC#N | -112 |
| O=C1C=CC(=O)C=C1 | 114 to 116 |
| CC1CO1 (configuration not stated) | -112 |
| CCOC(=O)C(O)(c1ccccc1)c1ccccc1 | 30 to 34 |
| Brc1ccccc1-c1ccccc1 | 1 to 2 |
| O=C1c2ccccc2C(=O)c2ccccc21 | 284 to 286 |
| O=c1[nH]c2ccccc2n1CCCN1CCC(n2c(=O)[nH]c3cc(Cl)ccc32)CC1 | 238 to 242 |
| CCCCC(=O)c1ccccc1 | -9.4 to -9 |
| CCCC(C)C1(CC)C(=O)NC(=O)NC1=O (configuration not stated) | 130 |
| CCC1(C2=CCCCC2)C(=O)NC(=O)NC1=O | 172 to 173 |
| BrCBr | -53 to -52 |
| OCCOCCO | -10.4 to -10 |
| c1ccc2c(c1)sc1ccccc12 | 97 to 99 |
| Cc1ccccc1O | 29.8 to 33 |
